What was measured:
Type in all cases: cell-based
786-O = experiment: Cell viability analysis (WST-1), 786-O; conditions: Table 4, repeated experiments, drug 10 μM
Protocol: (§1) Subculture the different types of cancer cells. The cancer cells includes lung cancer, gastric cancer, hepatic cancer, colon cancer, skin cancer, cervical cancer, prostate cancer, bladder cancer, breast cancer, leukemia, pancreatic cancer, ovarian cancer, tongue cancer, osteosarcoma, and renal cancer. The cell numbers were counted and reseed as 2×10^6 in cell culture plate/flask. Then, the culture medium for culturing the cell lines was added to a volume of 10 ml, and the cells were cultured for 2-3 days. Then, the cells were suspended for loading into 96-well plates. The cell number was 3000 cells and the volume of the culture medium was 100 ul each well.
(§2) Removing the original culture medium from 96-well plate. Then add 100 μl of commercially drug at a concentration of 10 μM per well. After 72 hours, add the diluted WST-1 reagent to the well with 100 μl/well, and the diluted WST-1 reagent was acquired from the dilution of 9:1 medium and WST-1 stock reagent. Finally, the total volume of each well are 200 μl/well. Culture the 96-well plate at 37° C. for 30 to 90 minutes. Detecting and calculating the survival rate of each cancer cells with an ELISA reader at OD450 nm. The lower viability of cancer cells represents better inhibition effect via the drugs. Otherwise, the higher viability of cancer cells represents worse inhibition effect via the drugs.
(§3) According to the above mentioned cardiovascular drugs for cancer growth inhibition in Table 3, the inventors took the repeat experiments for the cardiovascular drugs to check the growth inhibitory effects of cancer cells by the cardiovascular drugs. […] 4.

C-33A = experiment: Cell viability analysis (WST-1), C-33A; conditions: Table 4, repeated experiments, drug 10 μM
Protocol: as §1, §2, §3

[1] = tested on: LoVo (Colorectal Adenocarcinoma); experiment: Cell viability analysis (WST-1), LoVo; conditions: Table 4, repeated experiments, drug 10 μM
[2] = tested on: HeLa (Cervix Adenocarcinoma); experiment: Cell viability analysis (WST-1), HeLa; conditions: Table 4, repeated experiments, drug 10 μM
[3] = tested on: A375 (Amelanotic Melanoma); experiment: Cell viability analysis (WST-1), A375; conditions: Table 4, repeated experiments, drug 10 μM
[4] = tested on: HepG2 (Hepatocellular Carcinoma); experiment: Cell viability analysis (WST-1), HepG2; conditions: Table 4, repeated experiments, drug 10 μM
TOV-21G = experiment: Cell viability analysis (WST-1), TOV-21G; conditions: Table 4, repeated experiments, drug 10 μM
Protocol: as §1, §2, §3

BCC = experiment: Cell viability analysis (WST-1), BCC; conditions: Table 4, repeated experiments, drug 10 μM
NIH-OVCAR-3 = experiment: Cell viability analysis (WST-1), NIH-OVCAR-3; conditions: Table 4, repeated experiments, drug 10 μM
Protocol: as §1, §2, §3

[5] = tested on: PC3 (Prostate Adenocarcinoma); experiment: Cell viability analysis (WST-1), PC3; conditions: Table 4, repeated experiments, drug 10 μM
[6] = tested on: H1650 (Lung Adenocarcinoma); experiment: Cell viability analysis (WST-1), H1650; conditions: Table 4, repeated experiments, drug 10 μM
[7] = tested on: TSGH-8301 (Urinary Bladder Carcinoma); experiment: Cell viability analysis (WST-1), TSGH-8301; conditions: Table 4, repeated experiments, drug 10 μM
Hep3B = experiment: Cell viability analysis (WST-1), Hep3B; conditions: Table 4, repeated experiments, drug 10 μM
Protocol: as §1, §2, §3

AsPC-1 = experiment: Cell viability analysis (WST-1), AsPC-1; conditions: Table 4, repeated experiments, drug 10 μM
Summary of the method: (§4)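 Cancer cells seeded at 3000 cells/well, then medium replaced with drug at 10 μM. After 72 h, WST-1 diluted 9:1 in medium was added and plates incubated at 37° C for 30 to 90 minutes; survival rate calculated from OD450 nm.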

[8] = tested on: A549 (Lung Adenocarcinoma); experiment: Cell viability analysis (WST-1), A549; conditions: Table 4, repeated experiments, drug 10 μM
T24 = experiment: Cell viability analysis (WST-1), T24; conditions: Table 4, repeated experiments, drug 10 μM
Protocol: as §1, §2, §3

[9] = tested on: AGS (Gastric Adenocarcinoma); experiment: Cell viability analysis (WST-1), AGS; conditions: Table 4, repeated experiments, drug 10 μM
[10] = tested on: MKN-45 (Gastric Adenocarcinoma); experiment: Cell viability analysis (WST-1), MKN-45; conditions: Table 4, repeated experiments, drug 10 μM
[11] = tested on: MCF7 (Mammary Gland, Adenocarcinoma); experiment: Cell viability analysis (WST-1), MCF7; conditions: Table 4, repeated experiments, drug 10 μM
MDA-MB231 = experiment: Cell viability analysis (WST-1), MDA-MB231; conditions: Table 4, repeated experiments, drug 10 μM
[12] = tested on: HCT116 (Colorectal Carcinoma); experiment: Cell viability analysis (WST-1), HCT116; conditions: Table 4, repeated experiments, drug 10 μM
U2OS = experiment: Cell viability analysis (WST-1), U2OS; conditions: Table 4, repeated experiments, drug 10 μM
Protocol: as §1, §2, §3

cancer cell lines = experiment: Growth inhibitory effects on the panel of cancer cell lines; conditions: drug 10 μM, 72 hours, WST-1
From the text: For cell viability analysis, the cardiovascular drugs include peripheral vasodilator reaming enhancer, angiotensin converting agent inhibitor, hypotension and shock therapeutic agent, diuretic, antiarrhythmic agent, antiarralciton drug, antihypertensive agent, anticoagulant thrombolytic agent, cardiac tonic, intravenous (hemorrhoids) therapeutic agent, are used to test the inhibition effect of cancer cell.

BxPC-3 = experiment: Cell viability analysis (WST-1), BxPC-3; conditions: Table 4, repeated experiments, drug 10 μM
Summary of the method: as §4

SAS = experiment: Cell viability analysis (WST-1), SAS; conditions: Table 4, repeated experiments, drug 10 μM
Summary of the method: as §4

For `O=C([O-])C[C@H](O)C[C@H](O)/C=C/c1c(C2CC2)nc2ccccc2c1-c1ccc(F)cc1.O=C([O-])C[C@H](O)C[C@H](O)/C=C/c1c(C2CC2)nc2ccccc2c1-c1ccc(F)cc1.[Ca+2]` [Pitavastatin calcium (Livalo), Pitavastatin calcium], the “survival rate (viability) of cancer cells, 786-O” value (786-O; 72 hours) was 16.46, the “survival rate (viability) of cancer cells, C-33A” value (C-33A; 72 hours) was 74.75 and the “survival rate (viability) of cancer cells, LoVo” value ([1]; 72 hours, WST-1) was 65.15. For the same molecule, the “survival rate (viability) of cancer cells, HeLa” value ([2]; 72 hours, WST-1) was 36.91, the “survival rate (viability) of cancer cells, A375” value ([3]; 72 hours, WST-1) was 22.09 and the “survival rate (viability) of cancer cells, HepG2” value ([4]; 72 hours, WST-1) was 98.06. The “survival rate (viability) of cancer cells, TOV-21G” value (TOV-21G; 72 hours) was 21.79, the “survival rate (viability) of cancer cells, BCC” value (BCC; 72 hours) was 26.77 and the “survival rate (viability) of cancer cells, NIH-OVCAR-3” value (NIH-OVCAR-3; 72 hours) was 61.41. The “survival rate (viability) of cancer cells, PC-3” value ([5]; 72 hours, WST-1) was 27.54, the “survival rate (viability) of cancer cells, H1650” value ([6]; 72 hours, WST-1) was 49.9822 and the “survival rate (viability) of cancer cells, TSGH-8301” value ([7]; 72 hours, WST-1) was 48.92. For the same molecule, the “survival rate (viability) of cancer cells, Hep3B” value (Hep3B; 72 hours) was 96.34, the “survival rate (viability) of cancer cells, AsPC-1” value (AsPC-1; 72 hours) was 51.36 and the “survival rate (viability) of cancer cells, A549” value ([8]; 72 hours, WST-1) was 89.44. The “survival rate (viability) of cancer cells, T24” value (T24; 72 hours) was 52.63, the “survival rate (viability) of cancer cells, AGS” value ([9]; 72 hours, WST-1) was 19.17 and the “survival rate (viability) of cancer cells, MKN-45” value ([10]; 72 hours, WST-1) was 61.3. For the same molecule, the “survival rate (viability) of cancer cells, MCF-7” value ([11]; 72 hours, WST-1) was 83.57, the “survival rate (viability) of cancer cells, MDA-MB231” value (MDA-MB231; 72 hours) was 39.0358 and the “survival rate (viability) of cancer cells, HCT116” value ([12]; 72 hours, WST-1) was 35.07. The “survival rate (viability) of cancer cells, U2OS” value (U2OS; 72 hours) was 43.44, the “inhibition effect on different cancer cell lines (in words)” value (cancer cell lines) was “significant inhibition effect” and the “survival rate (viability) of cancer cells, BxPC-3” value (BxPC-3; 72 hours) was 59.78. The “survival rate (viability) of cancer cells, SAS” value (SAS; 72 hours) was 38.0374.
With `CC(C)N(CCC(C(N)=O)(c1ccccc1)c1ccccn1)C(C)C` (centres unmarked) [Disopyramide Phosphate] the viability at 10 µM (786-O; Homo sapiens, 786-0, 72 h, read-out: survival rate (viability) of cancer cells, 786-O) was 102%, the viability at 10 µM (C-33A; Homo sapiens, C-33-A, 72 h, read-out: survival rate (viability) of cancer cells, C-33A) was 98.5% and the viability at 10 µM ([1]; Homo sapiens, LoVo, 72 h, WST-1, read-out: survival rate (viability) of cancer cells, LoVo) was 105%. The viability at 10 µM ([2]; Homo sapiens, HeLa, 72 h, WST-1, read-out: survival rate (viability) of cancer cells, HeLa) was 103%, the viability at 10 µM ([3]; Homo sapiens, A-375, 72 h, WST-1, read-out: survival rate (viability) of cancer cells, A375) was 114% and the viability at 10 µM ([4]; Homo sapiens, HepG2, 72 h, WST-1, read-out: survival rate (viability) of cancer cells, HepG2) was 109%. The viability at 10 µM (TOV-21G; Homo sapiens, TOV21G, 72 h, read-out: survival rate (viability) of cancer cells, TOV-21G) was 94.3%, the viability at 10 µM (BCC; BCC, 72 h, read-out: survival rate (viability) of cancer cells, BCC) was 110% and the viability at 10 µM (NIH-OVCAR-3; Homo sapiens, OVCAR-3, 72 h, read-out: survival rate (viability) of cancer cells, NIH-OVCAR-3) was 103%. The viability at 10 µM ([5]; 72 h, WST-1, read-out: survival rate (viability) of cancer cells, PC-3) was 103%, the viability at 10 µM ([6]; Homo sapiens, NCI-H1650, 72 h, WST-1, read-out: survival rate (viability) of cancer cells, H1650) was 90.5% and the viability at 10 µM ([7]; 72 h, WST-1, read-out: survival rate (viability) of cancer cells, TSGH-8301) was 115%. It also gave a viability at 10 µM (Hep3B; Homo sapiens, Hep3B, 72 h, read-out: survival rate (viability) of cancer cells, Hep3B) of 113%, a viability at 10 µM (AsPC-1; Homo sapiens, ASPC1, 72 h, read-out: survival rate (viability) of cancer cells, AsPC-1) of 77.2% and a viability at 10 µM ([8]; Homo sapiens, A549, 72 h, WST-1, read-out: survival rate (viability) of cancer cells, A549) of 99.4%. The viability at 10 µM (T24; Homo sapiens, T-24, 72 h, read-out: survival rate (viability) of cancer cells, T24) was 87.6%, the viability at 10 µM ([9]; 72 h, WST-1, read-out: survival rate (viability) of cancer cells, AGS) was 95.9% and the viability at 10 µM ([10]; Homo sapiens, MKN-45, 72 h, WST-1, read-out: survival rate (viability) of cancer cells, MKN-45) was 111%. For the same molecule, the viability at 10 µM ([11]; Homo sapiens, MCF7, 72 h, WST-1, read-out: survival rate (viability) of cancer cells, MCF-7) was 107%, the viability at 10 µM (MDA-MB231; Homo sapiens, MDA-MB-231, 72 h, read-out: survival rate (viability) of cancer cells, MDA-MB231) was 98.8% and the viability at 10 µM ([12]; Homo sapiens, HCT-116, 72 h, WST-1, read-out: survival rate (viability) of cancer cells, HCT116) was 94%. For the same molecule, the viability at 10 µM (U2OS; Homo sapiens, U2OS, 72 h, read-out: survival rate (viability) of cancer cells, U2OS) was 98.7%, the “inhibition effect on different cancer cell lines (in words)” value (cancer cell lines) was “significant inhibition effect” and the viability at 10 µM (BxPC-3; Homo sapiens, BXPC-3, 72 h, read-out: survival rate (viability) of cancer cells, BxPC-3) was 69.9%. It also gave a viability at 10 µM (SAS; 72 h, read-out: survival rate (viability) of cancer cells, SAS) of 96.9%.

Reference: US20170304388A1, “NEW INDICATION OF CARDIOVASCULAR DRUGS FOR PREPARATION OF CANCER INHIBITION PHARMACEUTICAL COMPOSITION” (LAUNX BIOMEDICAL CO., LTD., priority 2014, published 2017)
